Positions of bridges follow the written chain, without caps; N, C: chain ends. Non-standard residues stand in square brackets, D forms with d. Residues, ends and D or L forms follow the SMILES beside them. pGlu = O=C1CC[C@@H](C(=O)O)N1
Assays:
[1] = Isothermal titration calorimetry (ITC), Ca2+; assay type: binding; details: 200 µM metal ion titrated into cC1a, 10 mM Tris, 100 mM NaCl, pH 6.3
Experimental: (§1) Isothermal Titration Calorimetry (ITC) experiments were conducted at 298 K using the MicroCal PEAQ ITC system from Malvern Instruments Ltd., Malvern, UK. MgCl2, KCl, CaCl2, and FeCl3 were dissolved in a 10 mM Tris buffer containing 100 mM NaCl at a pH of 6.3. Similarly, coffeetide cC1a was prepared in the same buffer. In the initial set of experiments, 200 µM of these ions were incrementally titrated into cC1a, involving twenty 2.5 µL injections, while simultaneously measuring the heat changes. Additional experiments were conducted with higher concentrations of KCl, MgCl2, and FeCl3 interacting with cC1a. Specifically, 400 µM of KCl, MgCl2, and FeCl3 were titrated into a solution containing 40 µM of cC1a, utilizing twenty 2.5 µL injections, and monitoring the associated heat changes. Control experiments were conducted by titrating ions into a 10 mM Tris (pH 6.3) buffer containing 100 mM NaCl to account for heat changes resulting from dilution. The obtained titration curves were analyzed using MicroCal PEAQ-ITC analytics software (version 1.0.0.1259, Malvern Instruments Ltd.).

[2] = Isothermal titration calorimetry (ITC), Fe3+; details: 10 mM Tris, 100 mM NaCl, pH 6.3, 20 °C in text (298 K in method), synthetic cC1a, read-out: binding affinity (KD) to Fe^3+
Experimental: as §1

[3] = Thermal stability assay; assay type: physicochemical; details: native cC1a 200 µM; high heat (95 °C in text; 100 °C water bath in legend and method), 2 h; quenched in ice bath; RP-UHPLC quantification; triplicate
Experimental: (§2) Figure 6 Stability assays of coffeetide cC1a. An amount of 200 µM coffeetide cC1a was subjected to (A) heat at 100 °C for 2 h, (B) acidic conditions in 1 M HCl (pH 2.0) for 2 h, (C) pepsin in 100 mM sodium citrate buffer (pH 2.5) for 6 h, (D) aminopeptidase I in 20 mM tricine for 6 h, and (E) human serum for 36 h. MALDI-TOF MS was used to characterize coffeetide cC1a and reversed-phase ultra-high pressure liquid chromatography was used to quantify cC1a in the treated samples to calculate the percentage of cC1a remaining intact.
(§3) Thermal and acidic stability: A solution of purified 200 µM coffeetide cC1a was subjected to rigorous conditions, including incubation at 100 °C in a water bath and exposure to 2 M hydrochloric acid for 2 h. The reactions were promptly quenched, either by placing the samples in an ice bath for 10 min or by adding 1 M sodium hydroxide at various time intervals (0, 30, 60, 90, 120 min). Subsequently, the treated samples were injected into RP-UHPLC to evaluate the presence of coffeetide cC1a and quantify any degradation. Each experiment was conducted in triplicate, and MALDI-TOF MS was employed to analyze the collected peaks.

[4] = test system: HUVEC-CS cells; assay: MTT toxicity assay, HUVEC-CS; assay type: cell-based, human; details: 24 h treatment, concentrations up to 100 µM, MTT absorbance 550 nm, mean ± S.E.M. n = 3
Experimental: (§4) HeLa cells (human cervical cancer cells) and HUVEC-CS (human umbilical vein endothelial cells) were cultured in DMEM (Dulbecco’s Modified Eagle Medium) from Thermo Scientific, supplemented with 10% fetal bovine serum, 100 U/mL of penicillin, and streptomycin. Cell cultures were maintained in a 5% CO2 incubator at 37 °C.
(§5) To evaluate cell viability, a 3-(4,5-dimethylthiazolyl-2)-2,5-diphenyltetrazolium bromide (MTT) dye reduction assay was employed. In brief, HeLa and HUVEC-CS cells were subjected to treatment with either coffeetide cC1a or 0.1% Triton X-100 (utilized as a positive control) for a duration of 24 h. Following the incubation period, MTT was introduced to the cells to achieve a final concentration of 0.5 mg/mL and incubated for 3 h at 37 °C. The resulting insoluble formazan crystals were subsequently dissolved by the addition of dimethyl sulfoxide, and absorbance was measured at 550 nm using a microplate reader (Tecan Infinite® 200 Pro, Switzerland).

[5] = Isothermal titration calorimetry (ITC), Mg2+; details: 10 mM Tris, 100 mM NaCl, pH 6.3, 20 °C in text (298 K in method), synthetic cC1a, read-out: binding affinity (KD) to Mg^2+
Experimental: as §1

[6] = Human serum-mediated stability; assay type: in vitro ADME; details: 25% human serum (AB-type) in DMEM, native cC1a, 25% human male serum (AB-type) in phenol red-free DMEM, 37 °C, ethanol precipitation, RP-UHPLC, read-out: coffeetide remained after treatment with human serum
Experimental: as §2
Human serum-mediated stability: To assess stability in a biologically relevant context, purified 200 µg coffeetide cC1a was incubated with 25% human male serum (AB-type) in phenol red-free Dulbecco’s Modified Eagle Medium (DMEM) at 37 °C for 48 h. At defined time points (0 h, 12 h, 24 h, and 48 h), 50 µL of the samples were collected and treated with 100 µL of 95% ethanol to precipitate serum proteins. After incubation at 4 °C for 15 min and centrifugation at 13,000 rpm for 10 min, the extent of degradation was evaluated through RP-UHPLC chromatograms.

[7] = test system: HeLa cells; assay: MTT toxicity assay, HeLa; assay type: cell-based, human; details: 24 h treatment, concentrations up to 100 µM, MTT absorbance 550 nm, mean ± S.E.M. n = 3
Experimental: as §4, §5

[8] = Acidic stability assay; assay type: physicochemical; details: native cC1a 200 µM; acidic conditions (pH 2), 1 M HCl in legend, 2 M HCl in method, 2 h; quenched with 1 M NaOH; RP-UHPLC; triplicate
Experimental: as §2, §3

[9] = test system: T1, pepsin; assay: Proteolytic stability, pepsin; assay type: in vitro ADME; details: native cC1a 200 µM, 4 mg/mL pepsin in 100 mM sodium citrate buffer pH 2.5, 37 °C, RP-UHPLC, read-out: coffeetide remained intact with pepsin
T1 construct: purchased Sigma Aldrich or Fisher Scientific (general statement only)
Experimental: as §2
(§6) Proteolytic stability: In this test, purified 200 µM coffeetide cC1a was exposed to 37 °C for 6 h in the presence of 4 mg/mL of pepsin in a 100 mM sodium citrate buffer (pH 2.5) or 20 U/mL of aminopeptidase I in 20 mM tricine and 0.05% bovine serum albumin (pH 8.0). The peptide-to-enzyme ratio (w/w) was maintained at either 20:1 or 50:1. At specific time intervals (0, 2, 4, and 6 h), 20 µL of each sample was injected into RP-UHPLC to monitor degradation.

[10] = Isothermal titration calorimetry (ITC), K+; assay type: binding; details: 200 µM (also 400 µM) metal ion titrated into cC1a, 10 mM Tris, 100 mM NaCl, pH 6.3
Experimental: as §1

[11] = test system: T2, aminopeptidase I; assay: Proteolytic stability, aminopeptidase I; assay type: in vitro ADME; details: native cC1a 200 µM, 20 U/mL aminopeptidase I in 20 mM tricine, 0.05% BSA, pH 8.0, 37 °C, RP-UHPLC, read-out: coffeetide remained intact with aminopeptidase
T2 construct: purchased Sigma Aldrich or Fisher Scientific (general statement only)
Experimental: as §2, §6

SMILES: CC[C@H](C)[C@@H]1NC(=O)[C@@H]2CSSC[C@@H]3NC(=O)[C@@H]4CCCN4C(=O)[C@H](CCC(=O)O)NC(=O)CNC(=O)[C@H](CC(C)C)NC(=O)[C@@H]4CCCN4C(=O)[C@H](CO)NC(=O)[C@@H](NC(=O)[C@H](CCC(=O)O)NC(=O)CNC(=O)[C@H](CCC(=O)O)NC(=O)[C@@H]4CCC(=O)N4)CSSC[C@@H]4NC(=O)[C@H](CSSC[C@H](NC(=O)[C@H](CCCNC(=N)N)NC(=O)[C@H](CC(=O)O)NC(=O)[C@H]([C@@H](C)O)NC(=O)[C@H](CC(C)C)NC(=O)[C@H](CCC(N)=O)NC(=O)[C@H](Cc5c[nH]c6ccccc56)NC1=O)C(=O)N[C@@H](C(C)C)C(=O)NCC(=O)N[C@@H](CC(N)=O)C(=O)N[C@H](C(=O)O)CSSC[C@H](NC(=O)CNC(=O)[C@@H]1CCCN1C4=O)C(=O)N[C@@H]([C@@H](C)CC)C(=O)N2)NC(=O)CNC(=O)[C@H](Cc1c[nH]c2ccccc12)NC(=O)[C@@H]1CCCN1C(=O)[C@H](CC(N)=O)NC(=O)CNC(=O)[C@H](C)NC3=O [cC1a] ([pGlu]EGECSPLGEPCAGNPWGCCPGCICIWQLTDRCVGNC-OH; disulfide 5-20, 12-25, 19-33, 23-37)
- binding affinity to Ca^2+ [1]: does not display reproducible binding affinity
- Kd [2]: 1.67 ± 1.8 µM
- coffeetide remained intact under high heat [3]: > 88%
- cytotoxicity (MTT cell viability) [4]: not cytotoxic
- Kd [5]: 4.19 ± 4.79 µM
- remaining at 36 h, 200 µM [6]: > 85%
- cytotoxicity (MTT cell viability) [7]: not cytotoxic
- coffeetide remained intact under acidic conditions [8]: > 88%
- remaining at 6 h, 200 µM [9]: > 90%
- binding affinity to K^+ [10]: does not display reproducible binding affinity
- remaining at 6 h, 200 µM [11]: > 90%

From publication PMC10538209, “Ginsentide-like Coffeetides Isolated from Coffee Waste Are Cell-Penetrating and Metal-Binding Microproteins” (Molecules, 2023)
